From ChEMBL document CHEMBL4428125, “8-Substituted 1,3-dimethyltetrahydropyrazino[2,1-f]purinediones: Water-soluble adenosine receptor antagonists and monoamine oxidase B inhibitors” (Bioorg Med Chem, 2016) come the findings set out here.

pIC50, pKi: −log10 of the molar value.

One assay addresses T1, Adenosine receptor A1 (Rattus norvegicus, UniProt P25099).
T1 sequence (P25099 whole entry): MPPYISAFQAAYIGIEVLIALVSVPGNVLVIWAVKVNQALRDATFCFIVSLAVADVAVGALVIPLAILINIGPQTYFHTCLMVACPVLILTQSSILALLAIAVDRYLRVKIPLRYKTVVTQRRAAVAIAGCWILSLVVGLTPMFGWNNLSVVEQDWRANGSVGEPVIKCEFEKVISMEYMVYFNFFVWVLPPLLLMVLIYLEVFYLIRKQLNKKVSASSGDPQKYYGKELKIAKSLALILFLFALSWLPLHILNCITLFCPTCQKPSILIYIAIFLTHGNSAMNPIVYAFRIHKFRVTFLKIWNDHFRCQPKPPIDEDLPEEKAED
Description: Displacement of [3H]CCPA from A1 receptor in rat brain cortex membranes by liquid scintillation counting method. The format is cell membranes. In general terms: Loss of bound radioactivity is the signal in a displacement assay; it reports binding, not function.

Assay [1] has as its target T2, Adenosine receptor A1 (Rattus norvegicus) (UniProt P25099).
T2 sequence (whole entry): T1 sequence (P25099 whole entry)
The experiment in a line: Displacement of [3H]CCPA from A1 receptor in rat brain cortex membranes at 1.5 uM by liquid scintillation counting method. The format is cell membranes.

Another assay addresses Adenosine receptor A2a (Rattus norvegicus, UniProt P30543). Description: Displacement of [3H]MSX from A2A receptor in rat brain striatum membranes measured after 30 mins by liquid scintillation counting method. The format is cell membranes.
For assay [2], the target named is Adenosine receptor A2a (Rattus norvegicus) (UniProt P30543). Description: Displacement of [3H]MSX from A2A receptor in rat brain striatum membranes at 1 uM measured after 30 mins by liquid scintillation counting method relative to control. Type of assay: cell membranes.
Assay [3] concerns the target T3, Amine oxidase [flavin-containing] A (Homo sapiens, UniProt P21397).
T3 sequence (P21397 whole entry): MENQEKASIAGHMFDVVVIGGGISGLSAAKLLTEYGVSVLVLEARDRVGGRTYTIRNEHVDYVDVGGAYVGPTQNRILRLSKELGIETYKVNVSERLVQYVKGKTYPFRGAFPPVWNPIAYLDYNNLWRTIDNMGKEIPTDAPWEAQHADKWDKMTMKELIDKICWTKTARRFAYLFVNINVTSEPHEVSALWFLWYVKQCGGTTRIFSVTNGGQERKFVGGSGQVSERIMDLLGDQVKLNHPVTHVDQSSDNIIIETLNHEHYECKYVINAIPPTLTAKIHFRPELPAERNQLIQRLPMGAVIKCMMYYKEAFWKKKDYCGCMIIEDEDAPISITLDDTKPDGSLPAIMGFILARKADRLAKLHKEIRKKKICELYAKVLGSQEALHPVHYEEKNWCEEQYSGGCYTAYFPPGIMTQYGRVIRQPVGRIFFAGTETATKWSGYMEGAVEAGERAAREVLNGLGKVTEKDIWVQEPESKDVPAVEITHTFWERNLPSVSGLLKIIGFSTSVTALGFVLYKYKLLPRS
The experiment in a line: Inhibition of recombinant human MAO-A expressed in baculovirus infected BTI insect cells preincubated for 30 mins followed by addition of p-tyramine as substrate measured over 45 mins by Amplex Red MAO assay.

For assay [4], the target named is T3, Amine oxidase [flavin-containing] A. The experiment in a line: Inhibition of recombinant human MAO-A expressed in baculovirus infected BTI insect cells at 10 uM preincubated for 30 mins followed by addition of p-tyramine as substrate measured over 45 mins by Amplex Red MAO assay relative to control. As to conditions: 0.75 h.
Assay [5] has as its target T4, Amine oxidase [flavin-containing] B (Homo sapiens, UniProt P27338).
T4 sequence (P27338 whole entry): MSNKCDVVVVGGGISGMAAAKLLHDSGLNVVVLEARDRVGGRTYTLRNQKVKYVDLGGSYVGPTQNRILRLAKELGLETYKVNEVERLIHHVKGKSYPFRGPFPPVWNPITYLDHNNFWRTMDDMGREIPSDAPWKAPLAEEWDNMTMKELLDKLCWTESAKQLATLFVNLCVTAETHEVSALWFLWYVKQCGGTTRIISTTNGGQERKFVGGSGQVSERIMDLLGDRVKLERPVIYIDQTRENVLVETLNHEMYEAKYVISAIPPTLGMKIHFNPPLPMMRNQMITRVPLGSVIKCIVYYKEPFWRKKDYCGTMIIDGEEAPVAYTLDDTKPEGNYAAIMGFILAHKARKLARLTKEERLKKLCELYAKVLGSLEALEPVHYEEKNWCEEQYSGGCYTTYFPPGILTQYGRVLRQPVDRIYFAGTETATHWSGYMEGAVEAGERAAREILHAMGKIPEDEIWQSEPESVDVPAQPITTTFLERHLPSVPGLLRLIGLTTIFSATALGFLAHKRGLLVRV
The experiment in a line: Inhibition of recombinant human MAO-B expressed in baculovirus infected BTI insect cells preincubated for 30 mins followed by addition of p-tyramine as substrate measured over 45 mins by Amplex Red MAO assay.

Assay [6] concerns the target T4, Amine oxidase [flavin-containing] B. Description: Inhibition of recombinant human MAO-B expressed in baculovirus infected BTI insect cells at 10 uM preincubated for 30 mins followed by addition of p-tyramine as substrate measured over 45 mins by Amplex Red MAO assay relative to control. As to conditions: 0.75 h.
The target of a further assay is T5, Adenosine receptor A2b (Homo sapiens, UniProt P29275).
T5 sequence (P29275 whole entry): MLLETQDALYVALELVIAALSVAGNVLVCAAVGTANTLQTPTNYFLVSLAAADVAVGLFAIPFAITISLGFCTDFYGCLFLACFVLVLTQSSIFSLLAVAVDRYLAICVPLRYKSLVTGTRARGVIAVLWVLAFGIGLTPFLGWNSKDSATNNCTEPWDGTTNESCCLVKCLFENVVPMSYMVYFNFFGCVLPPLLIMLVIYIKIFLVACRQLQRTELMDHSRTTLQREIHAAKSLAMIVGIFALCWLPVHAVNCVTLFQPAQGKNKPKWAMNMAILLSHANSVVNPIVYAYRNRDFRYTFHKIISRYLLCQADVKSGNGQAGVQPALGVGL
Description: Displacement of [3H]PSB-603 from human A2B receptor expressed in CHO cell membrane. Type of assay: cell membranes.

Assay [7] concerns the target T6, Adenosine receptor A2b (Homo sapiens) (UniProt P29275).
T6 sequence (whole entry): T5 sequence (P29275 whole entry)
Description: Displacement of [3H]PSB-603 from human A2B receptor expressed in CHO cell membrane at 1 uM relative to control. Type of assay: cell membranes.

The next assay addresses T7, Adenosine receptor A3 (Homo sapiens, UniProt P0DMS8).
T7 sequence (P0DMS8 whole entry): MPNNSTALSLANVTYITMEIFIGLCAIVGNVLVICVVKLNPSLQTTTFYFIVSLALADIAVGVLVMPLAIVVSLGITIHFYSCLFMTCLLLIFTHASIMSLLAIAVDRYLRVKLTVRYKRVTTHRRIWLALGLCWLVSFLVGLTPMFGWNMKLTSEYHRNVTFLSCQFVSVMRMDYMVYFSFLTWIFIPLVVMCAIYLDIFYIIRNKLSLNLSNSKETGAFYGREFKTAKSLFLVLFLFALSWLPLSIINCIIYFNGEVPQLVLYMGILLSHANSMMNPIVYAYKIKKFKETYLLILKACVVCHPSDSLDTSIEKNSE
The experiment in a line: Displacement of [3H]PSB-11 from human A3 receptor expressed in CHO cell membrane by liquid scintillation counting method relative to control. The format is cell membranes.

The target in assay [8] is T8, Adenosine receptor A3 (Homo sapiens) (UniProt P0DMS8).
T8 sequence (whole entry): T7 sequence (P0DMS8 whole entry)
The experiment in a line: Displacement of [3H]PSB-11 from human A3 receptor expressed in CHO cell membrane at 10 uM by liquid scintillation counting method relative to control relative to control. Type of assay: cell membranes.

Sequence of Adenosine receptor A2a (P30543 whole entry): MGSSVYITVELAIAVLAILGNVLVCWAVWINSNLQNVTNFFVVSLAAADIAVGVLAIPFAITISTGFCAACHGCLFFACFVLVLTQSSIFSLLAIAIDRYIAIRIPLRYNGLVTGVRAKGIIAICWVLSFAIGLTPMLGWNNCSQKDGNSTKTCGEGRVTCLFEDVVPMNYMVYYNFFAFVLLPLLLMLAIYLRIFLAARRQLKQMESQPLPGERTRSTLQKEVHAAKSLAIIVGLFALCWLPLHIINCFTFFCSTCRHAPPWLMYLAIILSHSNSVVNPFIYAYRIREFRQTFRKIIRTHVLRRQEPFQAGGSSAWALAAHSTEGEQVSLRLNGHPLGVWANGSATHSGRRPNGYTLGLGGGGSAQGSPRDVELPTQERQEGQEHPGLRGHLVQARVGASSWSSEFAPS
Sequence of Adenosine receptor A2a (Rattus norvegicus) (P30543 whole entry): as above

The pKi is the negative decadic logarithm of the Ki, by convention in mol/L. Higher therefore signals a low Ki. One may read the pIC50 as −log10 of the IC50, conventionally taken in molar units. The term inhibition denotes the relative decrease from the control value, in per cent. For `COc1cccc2c1CC[C@H](N1CCn3c(nc4c3c(=O)n(C)c(=O)n4C)C1)C2`, the pKi on Adenosine receptor A1 is < 5.82; on Adenosine receptor A2a it was < 6.00; at Adenosine receptor A2b, < 6.00; on Adenosine receptor A3, < 5.00. Further, the Activity in assay [1] was found to be 11%; in [2], 11%; in [7], 9%; in assay [8], 8%. In addition, the pIC50 in [3] and in assay [5] was < 5.00 throughout. The inhibition at 10 µM was found to be 2% in assay [4] and 7% in assay [6].

`COc1cccc(C#CCN2CCn3c(nc4c3c(=O)n(C)c(=O)n4C)C2)c1`: the pKi at Adenosine receptor A1 is < 5.82; on Adenosine receptor A2a it was < 6.00; at Adenosine receptor A2b, < 6.00; at Adenosine receptor A3, < 5.00. Besides, the Activity worked out at 17% in [1], 32% in assay [2], 7% in assay [7] and 9% in assay [8]. In assay [5], the negative logarithm of the IC50 (pIC50) was < 5.00. Further, in assay [6], the inhibition at 10 µM amounted to 13%.

For `Cn1c(=O)c2c(nc3n2CCN(CC#Cc2ccc(Cl)c(Cl)c2)C3)n(C)c1=O`, the pKi is < 5.82 on Adenosine receptor A1, < 6.00 at Adenosine receptor A2a, < 6.00 at Adenosine receptor A2b and < 5.00 at Adenosine receptor A3. Also, the Activity came to 29% in assay [1], 31% in assay [2], 15% in assay [7] and 35% in [8]. The pIC50 in [5] is < 5.00. For the same compound, the inhibition at 10 µM in [6] is 31%.

As for `COc1cccc(CCN2CCn3c(nc4c3c(=O)n(C)c(=O)n4C)C2)c1`, the pKi is < 5.82 on Adenosine receptor A1, < 6.00 at Adenosine receptor A2a, < 6.00 at Adenosine receptor A2b and < 5.00 at Adenosine receptor A3. Moreover, the Activity was 17% in assay [1], 31% in assay [2], 5% in assay [7] and 23% in assay [8]. Further, the pIC50 in [5] was < 5.00. The inhibition at 10 µM in assay [6] was determined as 10%.

Consider `Cn1c(=O)c2c(nc3n2CCN(CCc2ccc(F)c(F)c2)C3)n(C)c1=O`, for which the pKi is < 5.82 on Adenosine receptor A1, < 6.00 on Adenosine receptor A2a, < 6.00 on Adenosine receptor A2b and < 5.00 at Adenosine receptor A3. The Activity in assay [1] turned out to be 10%; in assay [2], 19%; in assay [7], 12%; in [8], 11%. The inhibition at 10 µM in assay [6] was 60%.

Turning to `Cn1c(=O)c2c(nc3n2CCN(CCCn2ccnc2)C3)n(C)c1=O`, the pKi at Adenosine receptor A1 was < 5.82; at Adenosine receptor A2a it was < 6.00; on Adenosine receptor A2b, < 6.00; at Adenosine receptor A3, < 5.00. For the same compound, the Activity in assay [1] worked out at 13%; in [2], 13%; in [7] it was 4%; in assay [8], 11%. In addition, in assay [5], the pIC50 is < 5.00. Further, the inhibition at 10 µM in assay [6] was found to be 2%.

As to `COc1cccc(CCN2CCn3c(nc4c3c(=O)n(C)c(=O)n4C)C2)c1OC`, the pKi was < 5.82 at Adenosine receptor A1, < 6.00 at Adenosine receptor A2a, < 6.00 at Adenosine receptor A2b and < 5.00 at Adenosine receptor A3. Also, the Activity in assay [1] amounted to 5%; in assay [2] it was 30%; in [7], 8%; in assay [8] it was 43%. In addition, the pIC50 in [5] is < 5.00. Further, the inhibition at 10 µM in assay [6] was 1%.

For `COc1ccccc1CCN1CCn2c(nc3c2c(=O)n(C)c(=O)n3C)C1`, the pKi at Adenosine receptor A1 was < 5.82; at Adenosine receptor A2a, < 6.00; on Adenosine receptor A2b, < 6.00; on Adenosine receptor A3 it was < 5.00. Moreover, the Activity in assay [1] was 9%; in assay [2], 15%; in assay [7], 7%; in assay [8], 39%. Moreover, the negative logarithm of the IC50 (pIC50) in [5] was < 5.00. In addition, the inhibition at 10 µM in assay [6] worked out at 4%.

Regarding `Cn1c(=O)c2c(nc3n2CCN(Cc2cn(-c4ccc(Cl)cc4)nn2)C3)n(C)c1=O`, the pKi on Adenosine receptor A1 was < 5.82; at Adenosine receptor A2a, < 6.00; on Adenosine receptor A2b, < 6.00; on Adenosine receptor A3, < 5.00. Further, the Activity came to 36% in assay [1], 26% in [2], 27% in [7] and 11% in assay [8]. Also, the pIC50 in assay [5] was < 5.00. Also, the inhibition at 10 µM in assay [6] amounted to 12%.

With `COc1ccc(CCN2CCn3c(nc4c3c(=O)n(C)c(=O)n4C)C2)cc1OC`, the pKi is < 5.82 on Adenosine receptor A1, < 6.00 at Adenosine receptor A2a, < 6.00 on Adenosine receptor A2b and < 5.00 at Adenosine receptor A3. The Activity in [1] was -2%; in [2], 16%; in assay [7] it was 6%; in [8], 43%. Besides, the pIC50 in assay [5] is < 5.00. In addition, the inhibition at 10 µM in assay [6] was 13%.

Take `Cn1c(=O)c2c(nc3n2CCN(CCc2ccccc2)C3)n(C)c1=O`: the pKi was < 5.82 at Adenosine receptor A1, 5.02 at Adenosine receptor A2a, < 6.00 on Adenosine receptor A2b and < 5.00 on Adenosine receptor A3. Besides, the Activity in assay [1] stood at 9%; in assay [7], 11%; in [8] it was 43%. The pIC50 in assay [3] and in assay [5] was < 5.00 each time. In addition, the inhibition at 10 µM in [4] was -12%; in assay [6], 39%.
